Tests used:
[1] = test system: EcR-based gene switch (IP:GFP, ID38) in transgenic Arabidopsis leaf samples; assay: Ligand-induced GFP expression in leaf samples of IP:GFP (ID38) transgenic plants; type: cell-based; settings: leaf samples of IP:GFP plants on media containing ligand, 24 hr; not induced in wt control
Text: Transform wild type Arabidopsis to introduce inducible GFP reporter: DNA construct ID38, which is shown diagrammatically in FIG. 1A, may be used to transform wild type (wt) Arabidopsis. […]
GFP gene will not be expressed until methoxyfenozide (activator ligand—AL) is provided to mobilize the activator proteins for binding to the GAL4-RE and switching on the IP. […] Since GFP expression can be conveniently monitored in live plants under a fluorescence microscope, the transgenic Arabidopsis can be used to study the dosage, timing, and half life time of the ligand application. […]
Briefly, the DNA constructs shown in FIG. 1 were built following standard molecular cloning procedures and transformed into disarmed Agrobacterium tumefaciens strain AGL1. […] Selected transgenic plants were analyzed by quantitative PCR (qPCR) and PCR to check transgene copy numbers and transgene intactness. […]

[2] = test system: IP:FT (ID14) transgenic ft mutant Arabidopsis plants; assay: Induction of flowering in IP:FT (ID14) transgenic ft mutant plants by ligand spray; type: in vivo
Protocol: Briefly, the DNA constructs shown in FIG. 3 were transformed into homozygous ft mutant Arabidopsis by flower dipping method. T1 seeds were harvested and germinated in soil. 5 days old T1 seedlings were sprayed with LIBERTY® 280SL herbecide to kill off non-transgenic plants. Selected transgenic plants were analyzed by Bar-specific quantitative PCR (qPCR) to check transgene copy number. Events with low copy number of the transgenes were grown in growth chambers to evaluate phenotypes. […] Select T1 plants were grown to maturity and seeds were used to generate T2 and T3 progeny plants. Further detailed evaluation of the transgenic lines were done in T2 and T3 generation plants (as described in Example 7).
At day 11, the ID14 plants produced more flowers and pods while the ft mutant plant just started bolting.
T2 seeds were harvested from ID14 T1 plants and several experiments were designed to test if the EcR gene switch is tightly controlling the transgenic FT expression in the absence of the activator ligand, and if the switch can be easily turned on by applying the ligand to express enough FT to induce early flowering. T2 seeds from six independent ID14 lines (three with single copy of the transgene and three—with two copies) were planted along with wild-type Arabidopsis and ft mutant and grown under long day (16 hours) and short day (8 hours) photoperiods. Genotype of these T2 plants: homozygous, heterozygous, and null were assessed by TaqMan qPCR as described in Example 7 with the exception of utilizing only the Bar gene-specific primers and probes Bar-F1/Bar-R1/Bar-T1 and the same PDS endogenous control AtPDS-F1/AtPDS-R1/AtPDS-T1. The T2 plants segregated the transgene as a single gene following the Mendelian inheritance.
The homozygous plants and null segregants that served as isogenic negative controls were subject to treatment with water (as a control) and 2 concentrations of methoxyfenozide: low (250 nM) and high (2.5 μM). Plants were treated in groups of 2 pots with 5 plants in each at short and long day photoperiods. Treatments were administered every other day starting from day 19 (long day) and 25 (short day) after planting and continued for about three weeks until all plants flowered.
ID14 T2 plants were maintained to maturity and T3 seeds were collected for further characterization of a selected single-copy line ID14-50. The homozygous and null segregant T3 plants along with Arabidopsis ft mutant plants were grown for three weeks before starting ligand application. Plants were divided in four groups in which up to twelve individual plants per genotype were counted. Each group was treated with different concentrations of methoxyfenozide (10, 50 and, 250 nM) and one group was mock treated (water). Treatments were applied every other day from day 17 (long day) or 24 (short day) for a period of approximately three weeks or until all plants flowered.
The observation was done over a period of ninety days from the day of planting. In both short day and long day photoperiod, the homozygous T3 ID14-50 plants exposed to ligand started flowering as early as fourteen days before any null plants and ft mutants while the untreated plants flowered at a similar time with null and ft mutant plants as shown in FIG. 18.

In the case of COc1cccc(C(=O)NN(C(=O)c2cc(C)cc(C)c2)C(C)(C)C)c1C [methoxyfenozide, 3-methoxy-2-methylbenzoic acid 2-(3,5-dimethylbenzoyl)-2-(1,1-dimethylethyl)hydrazide], the “concentration at which GFP expression was induced” value [1] is reported as no more than 16 nM, the “flowering of non-flowering IP:FT plants after spray” value ([2]; T1 ID14 plants sprayed with ligand) is reported as “induced flowering and allowed for normal seed set” and the “time until treated ID14 plants started bolting” value ([2]; T1 plants not flowering within 3 weeks, 2.5 μM every other day, ft mutant did not) is reported as no more than 5 days. For the same molecule, the “time after the first application until ID14 plants started to flower” value ([2]; T2 ID14 plants, ft mutant and untreated ID14 plants did not flower) was “Five”, the “flowered earlier than ft mutant plants” value ([2]; homozygous T2 ID14-50 plants, 250 or 2500 nM) was 22 to 30 days and the induction of flowering ([2]; homozygous T2 ID14 plants, 250 nM and 2.5 μM every other day) was “clearly observed in most homozygous plants”. For the same molecule, the “started flowering before any null plants and ft mutants” value ([2]; homozygous T3 ID14-50 plants, 10, 50, 250 nM, short day and long day photoperiod) was “fourteen” and the “biomass production (number of rosette leaves as a proxy)” value ([2]; homozygous T3 ID14-50 plants, all ligand concentrations, both photoperiods) was “strong decrease”.
